The results in this text go back to patent US20260365628A1, “SUBSTITUTED 3,4-DIHYDROQUINOLINONE INHIBITORS OF TSHR” (Septerna, Inc., priority 2022, published 2026).

The assay deals with T1, hTSHR (Homo sapiens, UniProt P16473).
T1 construct: expressed in transfected cells
Put plainly: hTSHR TR-FRET cAMP Assay (inhibition of M22-stimulated cAMP production). The format is cell-based. Conditions: Expi293F Inducible cells stably expressing hTSHR; cAMP HTRF; stimulated with EC80 of anti-TSHR antibody M22; 15 min compound preincubation, 30 min at 37° C.; read-out: Activity (IC50 bins). In short, it runs like this:
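Readout was a cAMP HTRF ratio of 655/620 nm after lysis, scaled between the EC80 M22 signal (0% inhibition) and no-agonist vehicle (100%). Frozen induced Expi293F-hTSHR cells saw test compounds (0.5% DMSO) for 15 min at 37 °C before 30 min of M22 stimulation at EC80.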
(Time-resolved FRET reads energy transfer from a long-lived donor to a nearby acceptor.)

Each structure is given as a SMILES string.

T1 sequence (P16473 21-764): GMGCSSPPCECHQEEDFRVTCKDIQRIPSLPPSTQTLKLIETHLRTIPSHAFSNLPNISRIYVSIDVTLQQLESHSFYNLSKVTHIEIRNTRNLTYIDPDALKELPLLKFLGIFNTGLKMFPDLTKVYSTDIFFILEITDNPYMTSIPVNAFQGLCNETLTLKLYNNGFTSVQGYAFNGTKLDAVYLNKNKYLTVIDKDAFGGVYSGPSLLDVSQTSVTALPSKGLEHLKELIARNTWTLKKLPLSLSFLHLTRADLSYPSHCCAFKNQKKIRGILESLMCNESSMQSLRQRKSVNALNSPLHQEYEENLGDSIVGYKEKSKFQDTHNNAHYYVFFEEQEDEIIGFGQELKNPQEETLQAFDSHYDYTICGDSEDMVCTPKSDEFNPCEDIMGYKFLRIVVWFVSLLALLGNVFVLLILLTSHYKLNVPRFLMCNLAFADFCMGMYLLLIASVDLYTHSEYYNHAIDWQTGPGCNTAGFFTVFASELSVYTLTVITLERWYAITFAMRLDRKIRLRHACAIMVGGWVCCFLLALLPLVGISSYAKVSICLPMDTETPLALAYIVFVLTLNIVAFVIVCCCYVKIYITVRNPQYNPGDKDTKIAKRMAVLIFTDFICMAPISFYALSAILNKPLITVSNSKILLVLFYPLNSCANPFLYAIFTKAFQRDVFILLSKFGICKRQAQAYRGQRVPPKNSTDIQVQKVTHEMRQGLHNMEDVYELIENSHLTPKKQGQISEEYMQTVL

As to `C[C@@H](c1cccc(Cl)c1)N1C(=O)CCc2nc(NC(=O)NC(C)(C)C)ccc21` [Example 290, (S)-1-(tert-butyl)-3-(5-(1-(3-chlorophenyl)ethyl)-6-oxo-5,6,7,8-tetrahydro-1,5-naphthyridin-2-yl)urea], the IC50 was greater than 1000 nM. Take `C[C@H](c1cccc(Cl)c1)N1C(=O)CCc2nc(NC(=O)NC(C)(C)C)ccc21` [Example 291, (R)-1-(tert-butyl)-3-(5-(1-(3-chlorophenyl)ethyl)-6-oxo-5,6,7,8-tetrahydro-1,5-naphthyridin-2-yl)urea]: the 50% inhibitory concentration (IC50) lay in the range of 100 to 1000 nM. To `CC(C)(C)NC(=O)Nc1ccc2c(c1)OC(C)(C)C(=O)N2Cc1ccccc1` [Example 292, 1-(4-benzyl-2,2-dimethyl-3-oxo-3,4-dihydro-2H-benzo[b][1,4]oxazin-7-yl)-3-(tert-butyl)urea] belongs greater than 1000 nM; to `CC(c1cc(Cl)ccc1C#N)N1C(=O)COc2cc(NC(=O)NC(C)(C)C)ccc21` (stereo not drawn) [Example 293, 1-(tert-butyl)-3-(4-(1-(5-chloro-2-cyanophenyl)ethyl)-3-oxo-3,4-dihydro-2H-benzo[b][1,4]oxazin-7-yl)urea], greater than 1000 nM. To `CC(C)(C)NC(=O)Nc1ccc2c(c1)nc(N)c(=O)n2Cc1ccccc1` [Example 294, 1-(3-amino-1-benzyl-2-oxo-1,2-dihydroquinoxalin-6-yl)-3-(tert-butyl)urea] belongs greater than 1000 nM. On to `CCc1nc2cc(NC(=O)NC(C)(C)C)ccc2n(Cc2cccc(OC(F)(F)F)c2)c1=O` [Example 295, 1-(tert-butyl)-3-(3-ethyl-2-oxo-1-(3-(trifluoromethoxy)benzyl)-1,2-dihydroquinoxalin-6-yl)urea], for which the half-inhibitory concentration (IC50) was greater than 1000 nM.

Consider `CC(C)(C)NC(=O)Nc1ccc2c(c1)OCC(=O)N2C(c1ccccc1)C(F)(F)F` (stereo not drawn) [Example 296, 1-(tert-butyl)-3-(3-oxo-4-(2,2,2-trifluoro-1-phenylethyl)-3,4-dihydro-2H-benzo[b][1,4]oxazin-7-yl)urea], for which the concentration for half-maximal inhibition (IC50) was in the range of 100 to 1000 nM.

On to `COc1cccc([C@H](C)N2C(=O)CCc3cc(NC(=O)NC(C)(C)C)ccc32)c1` [Example 297, (S)-1-(tert-butyl)-3-(1-(1-(3-methoxyphenyl)ethyl)-2-oxo-1,2,3,4-tetrahydroquinolin-6-yl)urea], for which the IC50 was in the range of 100 to 1000 nM.

On to `CC(C)(C)NC(=O)Nc1ccc2c(c1)CCC(=O)N2C1CCOc2ccccc21` (stereo not drawn) [Example 298, 1-(tert-butyl)-3-(1-(chroman-4-yl)-2-oxo-1,2,3,4-tetrahydroquinolin-6-yl)urea], for which the IC50 was greater than 1000 nM.

Consider `C[C@@H](c1cccc(C(F)(F)F)n1)n1c(=O)cnc2cc(NC(=O)CCc3cccc(C(F)(F)F)c3)ccc21` [Example 299, (S)—N-(2-oxo-1-(1-(6-(trifluoromethyl)pyridin-2-yl)ethyl)-1,2-dihydroquinoxalin-6-yl)-3-(3-(trifluoromethyl)phenyl)propanamide], for which the 50% inhibitory concentration (IC50) fell in the range of 100 to 1000 nM. For `C[C@@H](c1cccc(C(F)(F)F)n1)n1c(=O)cnc2cc(NC(=O)CCC(C)(C)C)ccc21` [Example 300, (S)-4,4-dimethyl-N-(2-oxo-1-(1-(6-(trifluoromethyl)pyridin-2-yl)ethyl)-1,2-dihydroquinoxalin-6-yl)pentanamide] the value was 100 to 1000 nM. To `CC(C)(C)NC(=O)Nc1ccc2c(c1)CC(C(F)(F)F)C(=O)N2Cc1ccccc1` (stereo not drawn) [Example 301, 1-(1-benzyl-2-oxo-3-(trifluoromethyl)-1,2,3,4-tetrahydroquinolin-6-yl)-3-(tert-butyl)urea] belongs greater than 1000 nM; to `CC(C)(C)NC(=O)Nc1ccc2c(c1)CNC(=O)N2Cc1ccccc1` [Example 302, 1-(1-benzyl-2-oxo-1,2,3,4-tetrahydroquinazolin-6-yl)-3-(tert-butyl)urea], greater than 1000 nM; to `C[C@H]1Oc2cc(NC(=O)OC3CCCC3)ccc2N([C@@H](C)c2ccccc2)C1=O` [Example 303, cyclopentyl ((R)-2-methyl-3-oxo-4-((S)-1-phenylethyl)-3,4-dihydro-2H-benzo[b][1,4]oxazin-7-yl)carbamate], less than 100 nM. For `C[C@H]1Oc2cc(NC(=O)OC3CCCC3)ccc2N(Cc2cccc(C(F)(F)F)n2)C1=O` [Example 304, cyclopentyl N-[(2R)-2-methyl-3-oxo-4-{[6-(trifluoromethyl)pyridin-2-yl]methyl}-2H-1,4-benzoxazin-7-yl]carbamate] the value was less than 100 nM; for `CC(C)(C)NC(=O)Nc1ccc2c(c1)OC(CF)C(=O)N2Cc1ccccc1` (stereo not drawn) [Example 305, 1-[4-benzyl-2-(fluoromethyl)-3-oxo-2H-1,4-benzoxazin-7-yl]-3-tert-butylurea], 100 to 1000 nM. On to `C[C@H](c1cncc(C(F)(F)F)n1)N1C(=O)[C@@H](C)Oc2cc(NC(=O)NC(C)(C)C)ccc21` [Example 307, 1-(tert-butyl)-3-((R)-2-methyl-3-oxo-4-((R)-1-(6-(trifluoromethyl)pyrazin-2-yl)ethyl)-3,4-dihydro-2H-benzo[b][1,4]oxazin-7-yl)urea], for which the concentration for half-maximal inhibition (IC50) lay within 100 to 1000 nM. For `CC1(C)CCCC1C(=O)Nc1ccc2c(c1)ncc(=O)n2Cc1ccccc1` (stereo not drawn) [Example 308, N-(1-benzyl-2-oxo-1,2-dihydroquinoxalin-6-yl)-2,2-dimethylcyclopentane-1-carboxamide] the value was 100 to 1000 nM; for `CC(C)(C)NC(=O)Nc1ccc2c(c1)CCC(=O)N2C1CCc2ccccc21` (stereo not drawn) [Example 309, 1-(tert-butyl)-3-(1-(2,3-dihydro-1H-inden-1-yl)-2-oxo-1,2,3,4-tetrahydroquinolin-6-yl)urea], 100 to 1000 nM; for `CC(c1cccc(OC(F)(F)F)c1F)n1c(=O)cnc2cc(NC(=O)NC(C)(C)C)ccc21` (stereo not drawn) [Example 312, 1-(tert-butyl)-3-(1-(1-(2-fluoro-3-(trifluoromethoxy)phenyl)ethyl)-2-oxo-1,2-dihydroquinoxalin-6-yl)urea], 100 to 1000 nM. For `C[C@@H](c1cccc(OCC(F)(F)F)c1)n1c(=O)cnc2cc(NC(=O)NC(C)(C)C)ccc21` [Example 313, (S)-1-(tert-butyl)-3-(2-oxo-1-(1-(3-(2,2,2-trifluoroethoxy)phenyl)ethyl)-1,2-dihydroquinoxalin-6-yl)urea], the IC50 was greater than 1000 nM.

As to `C[C@H](c1cccc(OCC(F)(F)F)c1)n1c(=O)cnc2cc(NC(=O)NC(C)(C)C)ccc21` [Example 314, (R)-1-(tert-butyl)-3-(2-oxo-1-(1-(3-(2,2,2-trifluoroethoxy)phenyl)ethyl)-1,2-dihydroquinoxalin-6-yl)urea], the IC50 was 100 to 1000 nM. For `C[C@@H](c1cccc(OC(F)(F)F)c1)n1c(=O)cnc2cc(NC(=O)C3CCCC3)ccc21` [Example 315, (S)—N-(2-oxo-1-(1-(3-(trifluoromethoxy)phenyl)ethyl)-1,2-dihydroquinoxalin-6-yl)cyclopentanecarboxamide] the value was 100 to 1000 nM; for `C[C@H]1Oc2cc(NC(=O)NC(C)(C)C)ccc2N([C@@H](C)c2nccc(C(F)(F)F)n2)C1=O` [Example 316, 1-(tert-butyl)-3-((R)-2-methyl-3-oxo-4-((S)-1-(4-(trifluoromethyl)pyrimidin-2-yl)ethyl)-3,4-dihydro-2H-benzo[b][1,4]oxazin-7-yl)urea], greater than 1000 nM.

One may read the IC50 as the point on the concentration scale where inhibition reaches its midpoint.
